Laboratory results reported in patent US20140179677A1, “THERAPEUTIC AGENT FOR ECTOPIC PREGNANCY” (AKITA UNIVERSITY, priority 2010, published 2014).

Assays:
[1] = tested on: human placental villi transplanted under the kidney capsule; assay: Xenotransplantation of human villi into SCID mice as in vivo model of ectopic pregnancy
Description: (§1) To explore the roles of endogenous TrkB signaling in human ectopic pregnancy, xenotransplantation of human placental villi at 7-8 weeks of gestation into SCID mice (C.B-17/Icr-scid/scidJcl) (CLEA Japan, Tokyo, Japan) was used as an in vivo model. The care and use of animals was approved by the Animal Research Committee, Akita University School of Medicine. In preparation of grafts, small pieces of the placental villi were dissected as described above and kept in ice-cold PBS until transplantation. After anesthetizing of the SCID mice at 8-11 weeks of age with tribromoethanol (14-20 mg/kg) (Sigma, St. Louis, Mo.), the left and right kidneys were sequentially exteriorized. A 0.5 mm incision was then made in each kidney capsule, and a piece of the placental villi (5 mg wet weight) was transplanted underneath the capsule using a blunt tip tweezers. Treatment was initiated in animals after 1 week of transplantation when murine vascular networks were known to appear in areas of cytotrophoblast invasion (Non-patent Document 18). Animals weighted between 19-22 g on day of treatment. Intraperitoneal (ip) administration of K252a dissolved in physiological saline (500 μg/kg) was performed daily. For negative controls, treatment with K252b (500 μg/kg) or vehicle alone was used. The doses of K252a and K252b chosen for these experiments were based on previous studies (Non-patent Documents 12, 19). Some animals were treated daily with methotrexate (ip; 1 mg/kg) (Sigma) corresponding to the therapeutic dose used for medical treatment of ectopic pregnancy (Non-patent Document 3). The mice were killed after 7 days of treatment. Kidneys with villi transplants were excised and homogenized to measure hCG-β levels and caspase-3/7 activities. To identify trophoblasts in the kidney, cytokeratin, a marker for trophoblasts (Non-patent Document 20), was detected by immunohistochemistry. In addition to H&E staining, in vivo cell proliferation and apoptosis in the excised samples were evaluated by immunostaining of PCNA and Ki-67, and the TUNEL assay, respectively.
(§2) Quantitative real-time RT-PCR of TrkB and human leukocyte antigen-G (HLA-G) transcript levels in placental villi and mouse kidneys with xenotransplanted human villi was performed using a SmartCycler (Takara, Tokyo, Japan) with primers and hybridization probes for TrkB and β-actin as described (Non-patent Document 32). Primers for TrkB corresponded to the catalytic kinase domain of the receptor to avoid the amplification of truncated isoforms (Non-patent Document 33). Fragmented TrkB was specifically amplified using a reported primer (Non-patent Document 37). Validated Taqman gene expression assay was used to quantify the expression of HLA-G (Applied Biosystems, Forster City, Calif.). Data were normalized based on β-actin transcript levels.
(§3) To localize BDNF and TrkB, BDNF and TrkB immunostaining in placental villi and villous tissues of ectopic pregnancy were performed as described (Non-patent Document 11). BDNF antigen and TrkB antigen were detected by rabbit anti-BDNF polyclonal antibody (Chemicon, Temecula, Calif.) and chicken anti-TrkB polyclonal antibody (Promega, Madison, Wis.) recognizing full length TrkB were used, respectively, after dilution to 1:100. Some slides were subjected to proliferating cell nuclear antigen (PCNA) or Ki-67 immunostaining to evaluate cellular proliferation, whereas cytokeratin and HLA-G immunostaining were performed to identify trophoblasts and extravillous trophoblasts (EVTs) in the xenotransplanted human villi, respectively. After deparaffinization and dehydration, antigen retrieval was performed by autoclave heating at 121° C. for 10 min (PCNA and Ki-67), treatment with 0.4 mg/ml proteinase K (Sigma, St. Louis, Mo.) at room temperature for 5 min (cytokeratin), or microwave heating in 10 mM citrate buffer (pH 6) for 3×3 min (HLA-G). Endogenous peroxidase activities were quenched with 0.3% […] in methanol for 30 min. […]

[2] = Side effects and body weight of treated SCID mice; assay type: in vivo
Description: as §1, with “Animals weighted between 19-22 g on day of treatment. Intraperitoneal (ip) administration of K252a dissolved in physiological saline (500 μg/kg) was performed daily. For negative controls, treatment with K252b (500 μg/kg) or vehicle alone was used. The doses of K252a and K252b chosen for these experiments were based on previous studies (Non-patent Documents 12, 19). Some animals were treated daily with methotrexate (ip; 1 mg/kg) (Sigma) corresponding to the therapeutic dose used for medical treatment of ectopic pregnancy (Non-patent Document 3). The mice were killed after 7 days of treatment. Kidneys with villi transplants were excised and homogenized to measure hCG-β levels and caspase-3/7 activities.” left out

[3] = tested on: human placental villous explants (extravillous trophoblasts); assay: Human villous explant culture: EVT outgrowth and HLA-G transcript levels (trophoblast differentiation); assay type: cell-based; settings: 96 h culture; for EVT outgrowth: villous explants 6-8 weeks of gestation, 3% O2, different doses; for transcript levels of HLA-G: villous explants, 3% O2, real-time RT-PCR
Method: (§4) Preparation and cultivation of human villous explants of first trimester placentas were performed as described (Non-patent Document 13). Briefly, human placental villi at 6-8 weeks of gestation were aseptically dissected to remove decidual tissue and fetal membranes. Small pieces of placental villi (8 mg wet weight) were dissected under a stereomicroscope (Leica Microsystems, Tokyo, Japan). Each villous piece was put on Millicell-CM culture dish inserts (12-mm diameter) (Millipore, Bedford, Mass.) that were precoated with 200 μl of undiluted Matrigel Growth Factor Reduced (BD Bioscience pharmingen) and placed in 24-well culture plates. The villous pieces were covered with 150 μl of culture medium (DMEM/F12 without serum supplemented with 100 U/ml penicillin, 100 μg/ml streptomycin, and 0.25 μg/ml ascorbic acid, pH 7.4) (Invitrogen, Carlsbad, Calif.), whereas the bottom chamber contained 500 μl of culture medium. […] Culture media were changed every 48 h and collected for measurement of glucose concentration.
(§5) At the end of cultures, some villous explants including EVT outgrowth were subjected to RNA extraction for real-time RT-PCR to quantify the transcript levels of human leukocyte antigen-G (HLA-G). Glucose utilization by the villous explants was calculated from the difference between glucose concentration in fresh medium and that in the conditioned medium after 48 h of culture using an enzymatic assay (Mitsubishi BCL, Tokyo, Japan). The results were expressed as mg per 0.1 g wet weight tissue/48 h.
as §2

[4] = tested on: human placental villous explants (villous cytotrophoblasts); assay: Human villous explant culture: trophoblast proliferation and viability (H&E, PCNA, Ki-67, glucose utilization); assay type: cell-based; settings: for detachment of trophoblast layers from villous stromal core / number of villous cytotrophoblasts: 96 h culture, H&E, TrkB ectodomain 10 μg/ml, K252a 1,000 nM, K252b 1,000 nM
Method: as §4, §5
(§6) In some experiments, morphological changes in villous explants were evaluated by hematoxylin and eosin (H&E) staining. Furthermore, the activity of cellular proliferation was determined by immunohistochemical detection of proliferating cell nuclear antigen (PCNA) and Ki-67 antigens. To measure the progression of apoptosis, some villous explants were subjected to a quantitative caspase-3/7 enzyme assay as described (Non-patent Documents 12, 16). Apoptosis in villous explants was also assayed by detecting DNA fragmentation using in situ terminal deoxynucleotidyl transferase-mediated […] nick end-labeling (TUNEL) (Non-patent Document 17).
as §3

[5] = tested on: human placental villous explants (villous trophoblasts); assay: Human villous explant culture: apoptosis (TUNEL, caspase-3/7 enzyme assay); assay type: cell-based; settings: 96 h culture; for proportion of TUNEL-positive nuclei: TrkB ectodomain 10 μg/ml, K252a 1,000 nM, K252b 1,000 nM; for caspase-3/7 activities, increase relative to controls: villous explants, 3% O2
Method: as §4, §6

[6] = K252a 500 μg/kg ip daily for 7 days

Row | Molecule | EVT outgrowth [3] | transcript levels of HLA-G [3] | detachment of trophoblast layers from villous stromal core [4] | number of villous cytotrophoblasts [4] | proportion of TUNEL-positive nuclei [5] | caspase-3/7 activities, increase relative to controls [5] | further results
1 | COC(=O)[C@@]1(O)C[C@H]2O[C@]1(C)n1c3ccccc3c3c4c(c5c6ccccc6n2c5c31)C(=O)NC4 [K252a] | suppressed EVT outgrowth in a dose-dependent manner | decreases in the transcript levels of HLA-G | induced partial detachment of trophoblast layers | decreased the number of villous cytotrophoblasts | increased the proportion of TUNEL-positive nuclei | Increases in caspase-3/7 activities | TUNEL-positive nuclei in cytotrophoblasts [1, 6]: increases in TUNEL-positive nuclei; activation of caspase-3/7 within the xenografts, increase relative to vehicle [1, 6]: 4.1 fold; cell proliferation by PCNA and Ki-67 staining [1, 6]: suppression of cell proliferation; transcript levels for HLA-G in kidney with transplanted villi [1, 6]: major decreases in transcript levels for HLA-G; decrease in hCG-β levels in tissue homogenates ([1]; K252a 500 μg/kg ip daily for 7 days, RIA): 73.3%; cell numbers of invading EVTs and cytotrophoblasts in villous cores ([1]; K252a 500 μg/kg ip daily for 7 days, cytokeratin, HLA-G, H&E staining): decreases in cell numbers of invading EVTs and cytotrophoblasts; body weight ([2]; 500 μg/kg ip daily, during studies, mean±SEM): 19.27 ± 1.03 g; body weight changes ([2]; K252a 500 μg/kg ip daily): no body weight changes; inhibition at 1 µM ([4]; Homo sapiens, 48 h, read-out: glucose utilization by villous explants, inhibition): > 94%
2 | C[C@]12O[C@H](C[C@]1(O)C(=O)O)n1c3ccccc3c3c4c(c5c6ccccc6n2c5c31)CNC4=O [K252b] | – | – | – | – | – | – | all parameters tested in the xenotransplant model ([1]; K252b 500 μg/kg ip daily for 7 days): ineffective
3 | CN(Cc1cnc2nc(N)nc(N)c2n1)c1ccc(C(=O)N[C@@H](CCC(=O)O)C(=O)O)cc1 [MTX, methotrexate] | – | – | – | – | – | – | trophoblast differentiation, proliferation, and survival ([1]; MTX 1 mg/kg ip daily for 7 days): did not inhibit
4 | TrkB ectodomain: soluble ectodomain of TrkB (R&D Systems), binds BDNF and competingly suppresses BDNF/TrkB binding | suppressed EVT outgrowth in a dose-dependent manner | decreases in the transcript levels of HLA-G | induced partial detachment of trophoblast layers | decreased the number of villous cytotrophoblasts | increased the proportion of TUNEL-positive nuclei | Increases in caspase-3/7 activities | –
